In BindingDB's records for doi:10.1021/acs.jmedchem.6b00330 (University of Bonn, 2016):
pEC50: −log10 of the molar value.

Experiments:
[1] = Inhibition of c-terminal GFP-tagged human ABCG2 expressed in MDCK2 cells assessed as enhancement of Hoechst 33342-induced cytotoxicity incubated for 72 hrs by MTT assay
[2] = Inhibition of c-terminal GFP-tagged human ABCG2 expressed in MDCK2 cells assessed as enhancement of SN-38-induced cytotoxicity incubated for 72 hrs by MTT assay
[3] = molecular target: T1, Broad substrate specificity ATP-binding cassette transporter ABCG2 (Homo sapiens, UniProt Q9UNQ0); assay: Inhibition of c-terminal GFP-tagged human ABCG2 expressed in MDCK2 cells assessed as enhancement of SN-38-induced cytotoxicity incubated for 72 hrs by MTT assay
T1 sequence (Q9UNQ0 whole entry): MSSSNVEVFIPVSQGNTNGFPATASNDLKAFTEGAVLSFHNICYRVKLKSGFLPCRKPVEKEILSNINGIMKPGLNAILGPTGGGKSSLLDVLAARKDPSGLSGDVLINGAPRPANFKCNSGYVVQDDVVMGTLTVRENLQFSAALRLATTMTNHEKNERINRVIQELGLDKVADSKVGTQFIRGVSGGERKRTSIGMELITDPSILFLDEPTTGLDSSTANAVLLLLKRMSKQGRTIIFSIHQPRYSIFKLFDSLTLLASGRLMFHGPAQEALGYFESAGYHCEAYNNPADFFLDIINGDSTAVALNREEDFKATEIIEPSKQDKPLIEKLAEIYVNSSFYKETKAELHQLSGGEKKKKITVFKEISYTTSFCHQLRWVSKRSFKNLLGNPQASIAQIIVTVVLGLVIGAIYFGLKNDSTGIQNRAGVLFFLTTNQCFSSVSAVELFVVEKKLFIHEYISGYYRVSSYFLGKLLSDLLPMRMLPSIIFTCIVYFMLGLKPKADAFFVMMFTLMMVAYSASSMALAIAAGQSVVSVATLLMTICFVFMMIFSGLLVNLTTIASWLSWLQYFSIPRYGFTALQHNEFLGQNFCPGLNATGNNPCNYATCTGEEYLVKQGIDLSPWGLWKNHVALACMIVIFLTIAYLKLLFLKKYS

[4] = molecular target: T1, Broad substrate specificity ATP-binding cassette transporter ABCG2; assay: Inhibition of c-terminal GFP-tagged human ABCG2 expressed in MDCK2 cells assessed as enhancement of Hoechst 33342-induced cytotoxicity incubated for 72 hrs by MTT assay

Q: What does the source list for N#Cc1ccc(Nc2nc(-c3ccccc3)nc3ccccc23)cc1?
A: pEC50 [1]: 7.28; pEC50 [2]: 7.39

Q: Which results are given for O=[N+]([O-])c1cc(Nc2nc(-c3ccccc3)nc3ccccc23)ccc1O?
A: pEC50 [3]: 6.92; pEC50 [4]: 6.89
